Measurements: PubChem BioAssay (NCI)
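Each compound was tested at five concentrations against cells in 96-well plates for 48 hours. The concentration for full growth arrest is given as TGI.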

What was measured:
Test in all cases: NCI-60 cell line screen, 48 h
[1] = test system: CCRF-CEM leukemia
[2] = test system: COLO 205 colon
[3] = test system: EKVX NSCLC
[4] = test system: HCC-2998 colon
[5] = test system: HOP-62 NSCLC
[6] = test system: HT29 colon
[7] = test system: LOX IMVI melanoma
[8] = test system: MDA-MB-231 breast
[9] = test system: OVCAR-3 ovarian
[10] = test system: OVCAR-8 ovarian
[11] = test system: T-47D breast
[12] = test system: TK-10 renal
[13] = test system: UO-31 renal
[14] = test system: BT-549 breast

SMILES | TGI [1] [µM] | TGI [2] [µM] | TGI [3] [µM] | TGI [4] [µM] | TGI [5] [µM] | TGI [6] [µM] | TGI [7] [µM] | TGI [8] [µM] | TGI [9] [µM] | TGI [10] [µM] | TGI [11] [µM] | TGI [12] [µM] | TGI [13] [µM] | TGI [14] [µM]
CC1(C)C=[N+]([O-])C(C)(C)N1 | > 100 | > 100 | > 100 | > 100 | > 100 | > 100 | > 100 | > 100 | > 100 | > 100 | > 100 | > 100 | > 100 | –
CN(C)c1ncnc2c1ncn2C1C=CC(COS(N)(=O)=O)C1 (stereo not given) | > 100 | > 100 | > 100 | > 100 | > 100 | > 100 | > 100 | – | > 100 | > 100 | > 100 | – | > 100 | > 100
CCOC(OCC)c1ccc(/C=C/c2cc(OC)c(OC)c(OC)c2)cc1 | 37.3 | 33.5 | > 100 | – | 56.6 | 33.6 | 25 | – | 38 | 76.3 | – | 82 | 45.7 | –
COC(=O)C(/C(=N/N)C(=O)Nc1cc(Cl)c(Cl)cc1Cl)c1nc2ccc(Cl)cc2[nH]c1=O (stereo not given) | – | – | > 100 | – | > 100 | > 100 | > 100 | > 100 | > 100 | > 100 | > 100 | > 100 | > 100 | > 100
COc1ccc(Nc2nc(N)c(C(=O)c3ccc(OC)cc3)s2)cc1 | – | > 100 | > 89.1 | > 29.7 | – | > 48.5 | > 100 | > 72.4 | 2.1 | > 74.5 | > 100 | > 60.7 | 44.3 | –
COC1=CC(C2c3cc4c(cc3[C@@H](Nc3ccc([N+](=O)[O-])cc3)C3COC(=O)[C@H]23)OCO4)=CC(=O)C1=O (stereo not given in full) | > 25.3 | 73.2 | > 95.2 | 14.5 | 2.47 | 35.8 | 13.2 | – | 54.9 | 40.4 | – | 43 | 20.7 | –
O=c1cc(NCC2CCCCC2)[nH]c(=O)[nH]1 | > 100 | > 100 | > 100 | > 100 | > 100 | – | > 100 | > 100 | > 100 | > 100 | – | > 100 | > 100 | > 100
CC(=N/NC(=S)Nc1c(C)n(C)n(-c2ccccc2)c1=O)/C(C)=N\NC(=S)Nc1c(C)n(C)n(-c2ccccc2)c1=O | – | > 100 | > 100 | > 100 | > 100 | > 100 | – | > 100 | > 100 | > 100 | > 100 | > 100 | > 100 | > 100
CC1(C)[C@@H]2C[C@H]1C(Cc1ccc(C[C@H]3c4cc(-c5ccccn5)ncc4[C@H]4C[C@@H]3C4(C)C)cc1)c1cc(-c3ccccn3)ncc12 (stereo not given in full) | – | 13.7 | 15 | 88.2 | 11 | > 100 | 7.55 | > 100 | 18.8 | 15.8 | > 100 | > 100 | 4.91 | > 100
CC(NC(=O)/C(C#N)=C/c1ccc2[nH]ccc2c1)c1ccccc1 (stereo not given) | 45.8 | 30.7 | 50.4 | 34 | 33.4 | 31.6 | 31.8 | – | 58 | 48.8 | 51 | 50.1 | 28.3 | 23.5
CC(=O)NCC1(c2ccccc2)CCN(CC2COc3ccccc3O2)CC1 (stereo not given) | > 100 | > 100 | > 100 | > 100 | > 100 | > 100 | > 100 | > 100 | > 100 | > 100 | > 100 | > 100 | > 100 | –
COC(=O)[C@H]1C=C[C@@H](C)n2c(=O)c3ccccc3c(=O)n21 | > 100 | > 100 | > 100 | > 100 | > 100 | > 100 | > 100 | – | > 100 | > 100 | – | > 100 | > 100 | –
COC(C/C(=C/CO[Si](C(C)C)(C(C)C)C(C)C)C(=O)Nc1ccccc1I)OC | > 100 | > 100 | – | 40 | > 100 | > 100 | 45.5 | 46 | 51.8 | > 100 | > 100 | > 100 | > 100 | –
Cn1c2ccccc2c(=O)c2c(O)cc3c(c21)C=CC1(CCCC1)O3 | > 100 | > 100 | > 100 | > 100 | > 100 | > 100 | > 100 | > 100 | > 100 | > 100 | – | > 100 | – | > 100
O=C1C(Cl)C(c2ccc(Cl)cc2)N1n1cnc2ccccc2c1=O (stereo not given) | > 100 | > 100 | 82.4 | > 100 | > 100 | > 100 | > 100 | – | > 100 | > 100 | – | > 100 | > 100 | –
CC(=O)OC1OC2C(NC(=O)OC(C)(C)C)C1CC2(OCc1ccccc1)OCc1ccccc1 (stereo not given) | 82.9 | 41.5 | > 100 | 40.7 | 76.3 | > 100 | – | – | 38.5 | > 100 | – | 44.3 | 30.3 | –
CO[C@@](c1ccccc1)(c1nc(C#N)c(N)o1)C(F)(F)F | 74.7 | > 100 | > 100 | > 100 | > 100 | – | > 100 | > 100 | > 100 | > 100 | > 100 | > 100 | > 100 | –
NC(=O)c1csc(CCCCCCc2nc(C(N)=O)cs2)n1 | > 62.4 | > 100 | > 100 | > 100 | > 100 | > 59.8 | > 100 | – | > 100 | > 100 | – | > 100 | > 100 | –
